This test deals with T1, Bax inhibitor-1 (BI-1) (Homo sapiens, UniProt P55061).
T1 construct: gene TMBIM6
As to the kind of experiment: SPR (Biacore T200, BI-1 immobilised on CM5 chip, kinetic […] fit). Type of test: binding.

Structures are written as SMILES.

T1 sequence (P55061 whole entry): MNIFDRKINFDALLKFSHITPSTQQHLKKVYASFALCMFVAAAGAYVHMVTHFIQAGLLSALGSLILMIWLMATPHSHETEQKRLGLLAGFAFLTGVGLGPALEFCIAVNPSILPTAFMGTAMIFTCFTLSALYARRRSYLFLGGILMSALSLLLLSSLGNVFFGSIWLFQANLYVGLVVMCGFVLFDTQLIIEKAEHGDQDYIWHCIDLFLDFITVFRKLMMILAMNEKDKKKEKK

In the case of `C#CCOc1cc(O)c2c(=O)c(OCCOCCOCCOCC(=O)NCCCCCC(=O)Nc3cccc4c3CN(C3CCC(=O)NC3=O)C4=O)c(-c3ccc(OC)cc3)oc2c1CC=C(C)C` (stereo not shown) [compound 10, LJ-41], the Kd worked out at 79.7 µM.

The values are drawn from article PMC11641208, “Advanced PROTAC and Quantitative Proteomics Strategy Reveals Bax Inhibitor-1 as a Critical Target of Icaritin in Burkitt Lymphoma” (International Journal of Molecular Sciences, 2024).
